Key:
Type in all cases: in vitro ADME
[1] = target: T1, CYP2C11 (rat) (Rattus norvegicus, UniProt P08683); test: Metabolism by isolated rat CYP2C11; conditions: petasins 20 μM, 60 min
T1 construct: purchased BD Gentest (Switzerland); host or cells: baculovirus expression system
T1 sequence (P08683 1-500): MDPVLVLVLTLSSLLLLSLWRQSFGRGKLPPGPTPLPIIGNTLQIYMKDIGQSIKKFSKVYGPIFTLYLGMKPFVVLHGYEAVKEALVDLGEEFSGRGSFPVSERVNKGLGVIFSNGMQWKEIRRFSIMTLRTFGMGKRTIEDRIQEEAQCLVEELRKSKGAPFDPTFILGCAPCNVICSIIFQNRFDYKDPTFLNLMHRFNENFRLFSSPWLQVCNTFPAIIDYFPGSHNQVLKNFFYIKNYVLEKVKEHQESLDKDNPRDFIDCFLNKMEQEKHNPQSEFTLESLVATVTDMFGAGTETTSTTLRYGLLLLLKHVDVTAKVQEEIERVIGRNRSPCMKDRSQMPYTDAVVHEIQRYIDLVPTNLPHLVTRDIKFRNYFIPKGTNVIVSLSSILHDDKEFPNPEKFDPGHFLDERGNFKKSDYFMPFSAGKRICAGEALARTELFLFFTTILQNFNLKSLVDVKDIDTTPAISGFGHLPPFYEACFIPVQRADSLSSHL
From the text: (§1) The metabolism of petasin, isopetasin, and neopetasin was investigated using three different S9 fractions originating from three different species (isolated from rat, dog, and human liver homogenates containing cytochrome P450 isoforms) and isolated cytochromes of two different species (human and rat; rat analogues of the respective human cytochromes were used). For the expression of the different cytochromes, a baculovirus expression system was used according to supplier's manual. The S9 fractions or respectively single P450 cytochromes were used to mimic the liver metabolism by in vitro incubation.
(§2) The assay was carried out in triplicate in 1.5 ml glass vials with a final concentration of 20 μM of petasin, isopetasin, and neopetasin. The incubation was performed in a 37°C warm water bath. S9 fractions were thawed slowly on ice. Four different approaches were pursued by testing: (a) petasin, neopetasin, and isopetasin before (0 min) and after 60 min incubations with S9 fraction; (b) petasin, neopetasin, and isopetasin without S9 fraction after 60 min incubation; (c) vehicle as negative controls; and (d) cofactors of S9 fraction after 60‐min incubation.
(§3) A mixture of NADPH regeneration systems A (20‐fold) and B (100‐fold), phosphate buffer, and H2O was added, preincubated at 37°C, and shaken gently for 5 min. Afterwards, the recommended amount between 10 and 40 pmol/ml of enzyme or enzyme mixture was added according to manufacturer's instruction and incubated for further 60 min at 37°C and gently shaken. Afterwards, the reactions were stopped by addition of acetonitrile (400 μl). For the control sample, acetonitrile was added at 0 min incubation. The samples were centrifuged for 3 min at 10,000 × g. The supernatant was transferred to high‐performance liquid chromatography vials and analyzed by ultra‐performance liquid chromatography mass spectrometry (UPLC/MS). The UPLC analysis was performed with an UPLC Acquity H Class from Waters (Waters Corporation, Switzerland) including a quaternary high‐pressure gradient pump, an automatic sample injector, and a column thermostat. […]

[2] = target: T2, CYP3A4 (human) (Homo sapiens, UniProt P08684); test: Metabolism by isolated human CYP3A4; conditions: petasins 20 μM, 60 min
T2 construct: purchased BD Gentest (Switzerland); host or cells: baculovirus expression system
T2 sequence (P08684 whole entry): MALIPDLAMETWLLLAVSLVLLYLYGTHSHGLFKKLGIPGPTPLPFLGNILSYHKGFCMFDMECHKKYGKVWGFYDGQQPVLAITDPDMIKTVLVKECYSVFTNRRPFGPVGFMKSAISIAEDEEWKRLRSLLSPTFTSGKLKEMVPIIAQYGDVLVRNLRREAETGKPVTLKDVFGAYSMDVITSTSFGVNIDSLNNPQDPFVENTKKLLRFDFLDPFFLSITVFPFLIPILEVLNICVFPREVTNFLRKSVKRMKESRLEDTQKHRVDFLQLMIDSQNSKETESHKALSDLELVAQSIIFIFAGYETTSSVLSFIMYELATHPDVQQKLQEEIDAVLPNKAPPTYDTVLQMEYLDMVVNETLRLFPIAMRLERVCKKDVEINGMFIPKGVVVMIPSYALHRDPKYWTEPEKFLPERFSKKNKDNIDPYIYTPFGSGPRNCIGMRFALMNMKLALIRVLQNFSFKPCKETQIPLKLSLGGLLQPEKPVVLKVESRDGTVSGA
From the text: as §1, §2, §3

[3] = Incubation without S9 fraction (solvent or cofactors only, negative controls); conditions: 20 μM, 60 min, data not shown; for metabolism with cofactors of S9 fraction only (negative control): cofactor only; for metabolism with solvent (negative control): solvent only
Procedure: as §2
A mixture of NADPH regeneration systems A (20‐fold) and B (100‐fold), phosphate buffer, and H2O was added, preincubated at 37°C, and shaken gently for 5 min. Afterwards, the recommended amount between 10 and 40 pmol/ml of enzyme or enzyme mixture was added according to manufacturer's instruction and incubated for further 60 min at 37°C and gently shaken. Afterwards, the reactions were stopped by addition of acetonitrile (400 μl). For the control sample, acetonitrile was added at 0 min incubation. The samples were centrifuged for 3 min at 10,000 × g. The supernatant was transferred to high‐performance liquid chromatography vials and analyzed by ultra‐performance liquid chromatography mass spectrometry (UPLC/MS). The UPLC analysis was performed with an UPLC Acquity H Class from Waters (Waters Corporation, Switzerland) including a quaternary high‐pressure gradient pump, an automatic sample injector, and a column thermostat. Chromatographic separation was achieved on an Acquity BEH C18, […], 50 × 2.1 mm column (Waters, Switzerland). The mobile phase consisted of 0.1% formic acid (A) and acetonitrile (B). The initial gradient condition was 10% (B) followed by a step to 90% (B) until 6.0 min. The column temperature was adjusted to 40°C. The flow rate was 0.5 ml/min and the injection volume 5 μl. The mass spectrometry was performed in positive electrospray mode using an ACQUITY QDa mass detector (Waters Corporation, Switzerland). The single ion recording was set to 317.2 Da.

[4] = target: T3, CYP1A2 (human) (Homo sapiens, UniProt P05177); test: Metabolism by isolated human CYP1A2; conditions: petasins 20 μM, 60 min
T3 construct: purchased BD Gentest (Switzerland); host or cells: baculovirus expression system
T3 sequence (P05177 1-516): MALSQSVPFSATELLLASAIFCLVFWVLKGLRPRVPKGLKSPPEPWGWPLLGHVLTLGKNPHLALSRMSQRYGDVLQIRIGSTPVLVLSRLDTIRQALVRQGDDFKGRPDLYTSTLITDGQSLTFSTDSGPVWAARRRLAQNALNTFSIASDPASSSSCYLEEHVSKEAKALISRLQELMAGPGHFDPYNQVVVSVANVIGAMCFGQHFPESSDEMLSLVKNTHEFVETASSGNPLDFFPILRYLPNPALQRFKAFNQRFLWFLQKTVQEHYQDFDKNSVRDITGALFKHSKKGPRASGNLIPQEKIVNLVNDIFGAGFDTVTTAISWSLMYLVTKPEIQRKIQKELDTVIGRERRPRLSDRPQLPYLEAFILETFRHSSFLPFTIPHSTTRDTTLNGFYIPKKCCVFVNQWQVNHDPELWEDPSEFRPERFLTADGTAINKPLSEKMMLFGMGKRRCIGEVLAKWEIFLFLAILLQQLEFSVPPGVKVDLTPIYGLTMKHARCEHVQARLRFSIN
From the text: as §1, §2, §3

[5] = target: T4, CYP2C6 (rat) (Rattus norvegicus, UniProt P05178); test: Metabolism by isolated rat CYP2C6; conditions: petasins 20 μM, 60 min
T4 construct: purchased BD Gentest (Switzerland); host or cells: baculovirus expression system
T4 sequence (P05178 1-490): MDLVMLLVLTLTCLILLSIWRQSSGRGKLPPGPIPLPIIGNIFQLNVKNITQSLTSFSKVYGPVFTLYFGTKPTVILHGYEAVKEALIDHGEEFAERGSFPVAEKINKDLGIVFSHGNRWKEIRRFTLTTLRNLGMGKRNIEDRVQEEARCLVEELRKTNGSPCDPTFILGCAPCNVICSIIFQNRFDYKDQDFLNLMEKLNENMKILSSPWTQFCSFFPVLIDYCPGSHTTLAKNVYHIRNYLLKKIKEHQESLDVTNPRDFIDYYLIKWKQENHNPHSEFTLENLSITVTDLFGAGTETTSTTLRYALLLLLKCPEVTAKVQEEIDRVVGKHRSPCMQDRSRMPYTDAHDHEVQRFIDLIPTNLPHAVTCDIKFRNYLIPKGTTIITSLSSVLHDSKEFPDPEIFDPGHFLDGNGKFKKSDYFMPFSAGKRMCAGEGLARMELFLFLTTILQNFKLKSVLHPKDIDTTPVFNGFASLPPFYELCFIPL
From the text: as §1, §2, §3

Compound | extent of metabolism by CYP2C11 (rat) [1] [%] | extent of metabolism by CYP3A4 (human) [2] [%] | metabolism with cofactors of S9 fraction only (negative control) [3] [%] | metabolism with solvent (negative control) [3] [%] | extent of metabolism by CYP1A2 (human) [4] [%] | extent of metabolism by CYP2C6 (rat) [5] [%]
C/C=C(/C)C(=O)O[C@@H]1CCC2=CC(=O)C(=C(C)C)C[C@]2(C)[C@H]1C [isopetasin] | 84 | 87 | < 1 | < 1 | 21 | 75
C=C(C)[C@H]1C[C@@]2(C)C(=CC1=O)CC[C@@H](OC(=O)/C(C)=C\C)[C@@H]2C [neopetasin] | 74 | 86 | < 1 | < 1 | < 1 | 72
C=C(C)[C@@H]1C[C@@]2(C)C(=CC1=O)CC[C@@H](OC(=O)/C(C)=C\C)[C@@H]2C [petasin] | 55 | 34 | 10 | < 1 | 4 | 94

— PMC7004140, “In vitro hepatotoxicity of Petasites hybridus extract (Ze 339) depends on the concentration, the cytochrome activity of the cell system, and the species used” (Phytotherapy Research, 2019)
